Source: patent publication US6027747A, “Process for the production of dry pharmaceutical forms and the thus obtained pharmaceutical compositions” (priority 1998, dated 2000)
Values joined by “and” are separate entries in the source; they are usually repeats but may differ in a detail not shown here. Identical values can stand only once.

Assay: Kinetics of dissolution of fenofibrate (UV 278 nm)
Format: physicochemical
Settings: for kinetics of dissolution of fenofibrate: 5 mg/l, one value per dish, Dish 1 to 6 in order
Procedure: The system of measurements used for the galenical control of the solid dispersions was made of two members: an apparatus of dissolution DISSOLUTEST DT 6 from ERWEKA [Euraf 55 rue Deschanel 92400 Courbevoie (France)] and a peristaltic pump 505 SR WATSON-MARLOW from Prolabo. Each test of dissolution was performed in one liter of degassed distilled water at 37° C. and at a pH near neutral. A sample of 4 mg of estradiol (i.e. 25 mg co-precipitate) was introduced in each of the six reactors at time t=0 and the speed of stirring of the paddles was 100 rounds/min. The dosages by UV (absorption at 278 nm) were performed continuously and in a closed circuit of a multi-channel peristaltic pump, connecting the beakers of the Dissolutest to the dishes of the spectrophometer. The latter was linked to a recorder and to a printing machine to permit the measurement at steady intervals of every 3 minutes of the variations of the optical density, themselves being proportional to the variations of the concentration of the active ingredient in the dissolution medium.
This was identical to that used for the study of the kinetics of dissolution for the co-precipitates of estradiol.
Therefore, it had been decided to prepare a calibrating range at 5 mg/l as for progesterone and to determine the kinetics of dissolution while introducing an equivalent amount of co-precipitate.

For `CC(C)OC(=O)C(C)(C)Oc1ccc(C(=O)c2ccc(Cl)cc2)cc1` [Fenofibrate], the “kinetics of dissolution of fenofibrate” value (0 min) was 0, the “kinetics of dissolution of fenofibrate” value (3 min) was 95.26 and 98.94 and 93.68 and 94.21 and 93.15 and the “kinetics of dissolution of fenofibrate” value (6 min) was 92.1 and 95.78 and 91.05 and 90.52. The “kinetics of dissolution of fenofibrate” value (9 min) was 87.89 and 91.05 and 86.31 and 85.78, the “kinetics of dissolution of fenofibrate” value (12 min) was 83.68 and 86.31 and 82.1 and 83.15 and 80.52 and the “kinetics of dissolution of fenofibrate” value (15 min) was 80.52 and 83.15 and 78.42 and 80 and 76.84. The “kinetics of dissolution of fenofibrate” value (18 min) was 77.89 and 77.36 and 80 and 75.26 and 74.21, the “kinetics of dissolution of fenofibrate” value (21 min) was 74.73 and 76.84 and 71.57 and 73.68 and 71.05 and the “kinetics of dissolution of fenofibrate” value (24 min) was 72.1 and 73.68 and 68.94 and 71.05 and 68.42. The “kinetics of dissolution of fenofibrate” value (27 min) was 70 and 71.57 and 66.84 and 68.94 and 66.31, the “kinetics of dissolution of fenofibrate” value (30 min) was 68.42 and 67.89 and 69.47 and 64.73 and 67.36 and the “recrystallization in the course of the dissolution test” value (in words) was “a recrystallization of fenofibrate had been observed”.
